Assay results published in patent US20080207614A1, “QUINAZOLINE DERIVATIVES FOR THE TREATMENT AND PREVENTION OF DIABETES AND OBESITY” (SK CHEMICALS CO., LTD., priority 2004, published 2008).

Assays:
[1] = test system: C2C12 muscle cells; test: Analysis of glucose absorption (2-deoxyglucose) in differentiated C2C12 muscle cells; type: cell-based; conditions: test materials 10 μM, times relative to control group
Summary of the method: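 Uptake of 0.2 μCi 2-deoxyglucose over 20 min, counted radiometrically in lysed cells. Before tracer, compounds (10 μM) were applied for 30 min to C2C12 cells differentiated 6 days in 1% serum and equilibrated 3 h in 5 mM glucose KRB.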

[2] = test system: AMPK; test: Measurement of AMPK activity by Western blot in C2C12 cells; type: cell-based; design: key to AMPK activity (degree of phosphorylation of serine-79 and threonine-172): fold increase in threonine-172 phosphorylation; AMPK activity (degree of phosphorylation of serine-79): unit not given here; conditions: 10 μM for 50 minutes; for AMPK activity (degree of phosphorylation of serine-79 and threonine-172): no superscript: Western blot of serine-79 and threonine-172 phosphorylation; for AMPK activity (class: degree of phosphorylation of threonine-172): strong/mild/weak; for AMPK activity (degree of phosphorylation of serine-79): footnote a: Western blot of serine-79 phosphorylation
Summary of the method: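 Western blot readout of AMPK Thr-172 and ACC Ser-79 phosphorylation, normalised against ERK, served as the activity measure. Cells were C2C12 after differentiation, treated 50 minutes with 10 μM test material. Grading by Thr-172 increase: ≥3-fold strong, 1-3-fold mild, <1-fold weak.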

SMILES | Glucose absorption [1] | AMPK activity (degree of phosphorylation of serine-79 and threonine-172) [2] | AMPK activity (class: degree of phosphorylation of threonine-172) [2] | AMPK activity (degree of phosphorylation of serine-79) [2]
c1ccc(CCNc2nc(-c3ccccn3)nc3ccccc23)cc1 [Compound 227, Phenethyl-(2-pyridino-2-ylquinazolino-4-yl)-amine] | 1.6 | 4.9 | strong (“strong” means that the degree of phosphorylation of threonine-172 increased by 3 times or more) | 
c1ccc2c(NCc3ccc4c(c3)OCO4)nc(N3CCCCC3)nc2c1 [Compound 308, Benzo[1,3]dioxol-5-ylmethyl-(2-piperidino-1-ylquinazolino-4-yl)-amine] | 0.8 | 2.2 |  | 
COc1ccc(CNc2nc(N3CCOCC3)nc3ccccc23)cc1 [Compound 285, (4-Methoxybenzyl)-(2-morpholino-4-ylquinazolino-4-yl)-amine] | 0.8 | 1.6 |  | 
Cc1ccc(CCNc2nc(-c3ccccc3)nc3ccccc23)cc1 [Compound 119, (2-Phenylquinazolino-4-yl)-(2-p-tollylethyl)-amine] | 2.6 | 2.3 | strong (“strong” means that the degree of phosphorylation of threonine-172 increased by 3 times or more) | 
COc1ccc(CNc2nc(C3CC3)nc3ccccc23)cc1 [Compound 384, (2-Cyclopropylquinazolino-4-yl)-(4-methoxybenzyl)-amine] | 1.2 | 2.0 |  | 
CCSc1nc(NCc2ccc(OC)cc2)c2ccccc2n1 [Compound 25, (2-Ethylsulfanylquinazolino-4-yl)-(4-methoxybenzyl)-amine] | 2.6 |  | strong (“strong” means that the degree of phosphorylation of threonine-172 increased by 3 times or more) | 
COc1cc(OC)c(CNc2ncnc3ccccc23)c(OC)c1 [Compound 414, Quinazolino-4-yl-(2,4,6-trimethoxybenzyl)-amine] | 1.5 | 2.9 |  | 
COc1ccc(CNc2nc(N3CCCC3)nc3ccccc23)c(OC)c1 [Compound 291, (2,4-Dimethoxybenzyl)-(2-pyrrolidino-1-ylquinazolino-4-yl)-amine] | 0.8 | 1.5 |  | 
OCCOCCNc1nc(-c2ccccc2)nc2ccccc12 [Compound 1, 2-[2-(2-Phenylquinazolino-4-ylamino)-ethoxy]-ethanol] | 1.7 |  |  | 6.0^a
COc1ccc(CNc2nc(N3CCCC3)nc3ccccc23)cc1 [Compound 283, (4-Methoxybenzyl)-(2-pyrrolidino-1-ylquinazolino-4-yl)-amine] | 1.0 | 1.1 |  | 
COc1cc(CNc2nc(Cc3ccccc3)nc3ccccc23)cc(OC)c1 [Compound 330, (2-Benzylquinazolino-4-yl)-(3,5-dimethoxybenzyl)-amine] | 1.2 | 1.7 |  | 
CCCc1nc(NCc2ccc(OC)cc2)c2ccccc2n1 [Compound 395, (4-Methoxybenzyl)-(2-propylquinazolino-4-yl)-amine] | 1.2 | 7.0 |  | 
c1ccc(CNc2nc(C3CCCCC3)nc3ccccc23)cc1 [Compound 199, Benzyl-(2-cyclohexylquinazolino-4-yl)-amine] | 2.1 | 2.3 | strong (“strong” means that the degree of phosphorylation of threonine-172 increased by 3 times or more) | 
Cc1nc(NCCCCc2ccccc2)c2ccccc2n1 [Compound 168, (2-Methylquinazolino-4-yl)-(4-phenylbutyl)-amine] | 3.6 | 8.4 | strong (“strong” means that the degree of phosphorylation of threonine-172 increased by 3 times or more) | 
Cc1nc(NCCc2cccc(F)c2)c2ccccc2n1 [Compound 172, [2-(3-Fluorophenyl)-ethyl]-(2-methylquinazolino-4-yl)-amine] | 2.6 | 4.4 | strong (“strong” means that the degree of phosphorylation of threonine-172 increased by 3 times or more) | 
Cc1nc(NCCc2ccccc2)c2ccccc2n1 [Compound 167, (2-Methylquinazolino-4-yl)-phenethylamine] | 3.2 | 6.7 | strong (“strong” means that the degree of phosphorylation of threonine-172 increased by 3 times or more) | 

SMILES | Glucose absorption [1] | AMPK activity (degree of phosphorylation of serine-79 and threonine-172) [2] | AMPK activity (class: degree of phosphorylation of threonine-172) [2] | AMPK activity (degree of phosphorylation of serine-79) [2]
CCSc1nc(NC(C)C)c2ccccc2n1 [Compound 8, (2-Ethylsulfanylquinazolino-4-yl)-isopropylamine] | 1.2 |  |  | 3.0^a
Fc1cccc(CCNc2nc(-c3ccccc3)nc3ccccc23)c1 [Compound 103, [2-(3-Fluorophenyl)-ethyl]-(2-phenylquinazolino-4-yl)-amine] | 2.2 | 2.6 | strong (“strong” means that the degree of phosphorylation of threonine-172 increased by 3 times or more) | 
COc1ccc(CNc2ncnc3ccccc23)cc1 [Compound 406, (4-Methoxybenzyl)-quinazolino-4-ylamine] | 2.1 | 1.5 |  | 
COc1cccc(CNc2nc(N3CCCCC3)nc3ccccc23)c1OC [Compound 288, (2,3-Dimethoxybenzyl)-(2-piperidino-1-ylquinazolino-4-yl)-amine] | 0.8 | 1.7 |  | 
ClC(Cl)(Cl)c1nc(NC2CC2)c2ccccc2n1 [Compound 3, Cyclopropyl-(2-trichloromethylquinazolino-4-yl)-amine] | 1.2 |  |  | 3.3^a
COc1ccccc1CNc1nc(C2CC2)nc2ccccc12 [Compound 382, (2-Cyclopropylquinazolino-4-yl)-(2-methoxybenzyl)-amine] | 1.2 | 2.2 |  | 
c1ccc(CCNc2nc(C3CCCCC3)nc3ccccc23)cc1 [Compound 203, (2-Cyclohexylquinazolino-4-yl)-phenethylamine] | 2.0 | 3.9 | strong (“strong” means that the degree of phosphorylation of threonine-172 increased by 3 times or more) | 
COc1cc(CNc2ncnc3ccccc23)cc(OC)c1 [Compound 409, (3,5-Dimethoxybenzyl)-quinazolino-4-ylamine] | 1.6 | 3.3 |  | 
CC(C)CCNc1nc(-c2ccccc2)nc2ccccc12 [Compound 130, (3-Methylbutyl)-(2-phenylquinazolino-4-yl)-amine] | 2.2 | 1.8 | strong (“strong” means that the degree of phosphorylation of threonine-172 increased by 3 times or more) | 
COc1cccc(CNc2nc(C(C)C)nc3ccccc23)c1OC [Compound 322, (2,3-Dimethoxybenzyl)-(2-isopropylquinazolino-4-yl)-amine] | 1.4 | 1.9 |  | 
c1ccc(CCCCNc2nc(-c3ccccn3)nc3ccccc23)cc1 [Compound 228, (4-Phenylbutyl)-(2-pyridino-2-ylquinazolino-4-yl)-amine] | 2.1 | 7.9 | strong (“strong” means that the degree of phosphorylation of threonine-172 increased by 3 times or more) | 
ClC(Cl)(Cl)c1nc(NCCN2CCCCC2)c2ccccc2n1 [Compound 4, (2-Piperidino-1-ylethyl)-(2-trichloromethylquinazolino-4-yl)-amine] | 1.2 |  |  | 3.5^a
COc1ccc(CSc2nc(-c3ccccc3)nc3ccccc23)c(OC)c1 [Compound 274, 4-(2,4-Dimethoxybenzylsulfanyl)-2-phenylquinazoline] | 0.8 | 1.9 |  | 
CCOc1cc2ncnc(NCCc3ccccn3)c2cc1OCC [Compound 17, (6,7-Diethoxyquinazolino-4-yl)-(2-pyridino-2-ylethyl)-amine] | 1.2 |  |  | 2.2^a
CCOc1cc2ncnc(NCc3cccc4ccccc34)c2cc1OCC [Compound 14, (6,7-Diethoxyquinazolino-4-yl)-naphthaleno-1-ylmethylamine] | 1.2 |  |  | 3.6^a
COc1ccc(CNc2nc(C(C)c3ccccc3)nc3ccccc23)cc1OC (centres unmarked) [Compound 377, (3,4-Dimethoxybenzyl)-[2-(1-phenylethyl)-quinazolino-4-yl]-amine] | 1.1 | 2.3 |  | 
